Test results published in patent publication US20110281369A1 (Board of Governors for Higher Education, State of Rhode …, priority 2006, published 2011).
Values joined by “and” are separate entries in the source; they are usually repeats but may differ in a detail not shown here. Equal entries are not always repeated. Values belong to the compound of their own block, whether it stands above or below them.

Experiments:
[1] = MPA concentration in saliva of kidney transplant recipients by LC-MS/MS; assay type: in vivo, human
Description: Indomethacin (INDO, Alfa Aesar) was used as the internal standard. All reagents and solvents were high performance liquid chromatography (HPLC) grade. […] Calibrators and Quality Control standards (QCs) were prepared using pooled unstimulated whole saliva collected from at least six healthy volunteers (IRB Approval#HU0203-120). […] All calibrators and QCs were aliquoted into 2 mL cryovials and maintained at −20° C. until use.
Extraction of MPA from saliva was carried out by protein precipitation. Calibrators, QC's or patient samples were thawed in a shaking water bath at 37° C. for 5 min. The samples were then sonicated for 10 seconds and 100 μL was pipetted into a microcentrifuge tube, followed by the subsequent additions 50 μL methanol containing INDO (500 μg/L) and […] acetonitrile. The tubes were vortex mixed for 90 seconds and centrifuged at 16,000 g for 5 min. The supernatants were carefully aspirated into glass culture tubes and dried at 50° C. in a centrifugal evaporator (Thermosavant Holbrook, N.Y.) after which they were reconstituted with 100 μL of 85:15% v/v of methanol and 0.05% formic acid in de-ionized water and a 20 μL aliquot was injected onto the column.
Analytical column was Zorbax Rx C8 (150 mm×4.6 mm, 5 μm) from Agilent Technologies (Palo Alto, Calif.) and mobile phase was a gradient mixture of methanol and deionized water containing 0.05% formic acid. […] For this, a combined mixture of the analytes (1 mg/L each) in mobile phase was infused continuously onto the mass spectrometer and the residues extracted from blank saliva were injected simultaneously via a three way T-valve. In accordance with further embodiments, the ionization technique may involve any of photoionization, electrospray ionization, atmospheric pressure chemical ionization, electron capture ionization or selective ion monitoring, and may be performed in positive mode or negative mode.
(§1) Patients were receiving 1000-2000 mg/day mycophenolate mofetil (Cellcept® Roche Laboratories). Unstimulated saliva samples were collected by passive drool into a plastic cup within a 5-min period of blood collection and stored at −80° C. until analysis. The patients remained fasted for the first 2 hours of sampling but then were allowed standard hospital meals.
(§2) Given the fact that the possibility of blood leakage in saliva is high at morning trough (FIG. 3), have collected 144 additional saliva samples obtained during another pharmacokinetic study. Therefore the data represented in the next section were obtained from 29 kidney transplant recipients throughout a 12-hour dosing interval.

[2] = Total and unbound MPA and metabolite concentrations in plasma of kidney transplant recipients (HPLC-UV; ultrafiltration followed by LC-MS/MS); assay type: in vivo, human; settings: 29 kidney transplant recipients
Description: as §1, §2

[3] = Stock solution stability of methanolic stock solutions at room temperature; assay type: physicochemical; settings: 8 hours, against freshly prepared samples
[4] = cited from earlier work
[5] = Stability of MPA in saliva based quality control standards (freeze-thaw, short term, autosampler); assay type: physicochemical; settings: for Short term stability: bench top 5 hours at room temperature; for Short term stability / Freeze-thaw stability / Autosampler stability: n=3, mean ± SD, in % (unit assumed); for Freeze-thaw stability: three cycles of freezing at −20° C. and thawing at room temperature; for Autosampler stability: dried and reconstituted extracts 14-hours in autosampler
Description: The lower limit of quantification (LLOQ) and limit of detection (LOD) were defined at a signal to noise ratio of 5:1 and 3:1, respectively. The recovery of the extraction procedure was done by comparing the peak areas obtained from an extracted saliva based standard of MIPA or INDO with the peak areas of these analytes in methanol. To evaluate intraday coefficient of variation (CV %) of the assay, QCs were analyzed six times on the same day. Interday CV % and accuracy was evaluated by measuring the QC concentrations over 10 days using a separate calibration curve for each set. […] For short term stability studies, samples were kept on the bench top for 5 hours at room temperature and for freeze-thaw stability studies, samples were subjected to three cycles of freezing at −20° C. and thawing unassisted at room temperature. To evaluate autosampler stability, dried and reconstituted extracts were kept in the autosampler for 14-hours and then analyzed.

[6] = 29 kidney transplant recipients, N=243
[7] = 29 kidney transplant recipients, N=246

Structure (SMILES): COc1c(C)c2c(c(O)c1C/C=C(\C)CCC(=O)O[C@@H]1O[C@H](C(=O)O)[C@@H](O)[C@H](O)[C@H]1O)C(=O)OC2 [AcMPAG, Acyl-MPAG]
Presence of AcMPAG peak in patient saliva ([1]; saliva of kidney transplant recipients, LC-MS/MS chromatogram): no AcMPAG peak was observed | AcMPAG conc, Mean ± SD ([2]; plasma, N=244): 1.8 ± 1.4 mg/L | AcMPAG conc, Median ([2]; plasma, N=244): 1.5 mg/L | AcMPAG conc, Min-Max ([2]; plasma, N=244): 0.4 to 8.5 mg/L

Loss of analyte at room temperature from methanolic stock solution [3]: 10%
Structure (SMILES): COc1ccc2c(c1)c(CC(=O)O)c(C)n2C(=O)c1ccc(Cl)cc1 [INDO, Indomethacin]

Loss of analyte at room temperature from methanolic stock solution [3]: 0.6% | Salivary concentration of MPA before administration of Cellcept morning dose (morning trough) ([1]; 11 kidney transplant recipients, morning trough): 79.8 ± 63.7 µg/L | Saliva concentration of MPA, range ([1]; 11 kidney transplant recipients, n=100 samples, 12-hour dosing interval): 2.6 to 2204 µg/L and 2.6 to 220.4 µg/L | Saliva concentration of MPA, Mean±SD ([1]; 11 kidney transplant recipients, n=100 samples, 12-hour dosing interval, 1000-2000 mg/day mycophenolate mofetil): 31.4 ± 32.3 µg/L | Average deviation between saliva and unbound plasma concentrations ([1]; 29 kidney transplant recipients, 244 saliva samples): 0.49 ng/mL | Deviation between saliva and unbound conc, Mean ± SD (average deviation) [1, 6]: 0.49 µg/L and 0.49 ± 44.25 µg/L | Deviation between saliva and unbound conc, Median [1, 6]: 1.89 µg/L | Deviation between saliva and unbound conc, Min-Max [1, 6]: -208.10 to 264.54 µg/L | Saliva MPA conc, Mean ± SD [1, 7]: 28.3 ± 32.3 µg/L | Saliva MPA conc, Median [1, 7]: 18.1 µg/L | Saliva MPA conc, Min-Max [1, 7]: 1.4 to 283.9 µg/L | Saliva MPA compared with unbound plasma concentration ([1]; two hours post dose, absorption phase): considerably lower | Unbound MPA conc, Mean ± SD ([2]; plasma ultrafiltrate, N=243): 27.9 ± 36.6 µg/L | Unbound MPA conc, Median ([2]; plasma ultrafiltrate, N=243): 14.5 µg/L | Unbound MPA conc, Min-Max ([2]; plasma ultrafiltrate, N=243): 1.8 to 267.0 µg/L | Total MPA conc, Median ([2]; plasma, N=244): 2.3 mg/L | Total MPA conc, Min-Max ([2]; plasma, N=244): 0.3 to 38.5 mg/L | Total MPA conc, Mean ± SD ([2]; plasma, N=244, 12-hour dosing interval): 3.7 ± 4.7 mg/L | Short term stability ([5]; 10 μg/L MPA in saliva): 106.0 ± 3.6 | Freeze-thaw stability ([5]; 10 μg/L MPA in saliva): 103.6 ± 7.1 | Autosampler stability ([5]; 10 μg/L MPA): 95.0 ± 6.6 | Short term stability ([5]; 600 μg/L MPA in saliva): 98.7 ± 2.7 | Freeze-thaw stability ([5]; 600 μg/L MPA in saliva): 98.9 ± 1.1 | Autosampler stability ([5]; 600 μg/L MPA): 98.2 ± 0.6 | Stability in saliva based standards (in words) ([5]; under the experimental condition described): stable
Structure (SMILES): COc1c(C)c2c(c(O)c1C/C=C(\C)CCC(=O)O)C(=O)OC2 [MPA, Mycophenolic acid]
pKa [4]: 4.5

MPAG conc, Mean ± SD ([2]; plasma, N=244): 51.8 ± 31.6 mg/L | MPAG conc, Median ([2]; plasma, N=244): 43.8 mg/L | MPAG conc, Min-Max ([2]; plasma, N=244): 10.6 to 180.5 mg/L
Structure (SMILES): COc1c(C)c2c(c(O[C@@H]3O[C@H](C(=O)O)[C@@H](O)[C@H](O)[C@H]3O)c1C/C=C(\C)CCC(=O)O)C(=O)OC2 [MPAG, MPA-glucuronide]
